In patent US20260070887A1 (Shenzhen Zhongge Biological Technology Co., Ltd., priority 2022, published 2026) one finds IC50 data, which are given here for 23 compounds.

What is called pIC50 is −log10 of the IC50, conventionally taken in molar units. A lower pIC50 goes with a high IC50.

Each structure is given as a SMILES string. pIC50: −log10 of the molar value.

The target in the experiment is KIF18A (Homo sapiens (Human), UniProt Q8NI77). Briefly: KIF18A ATPase activity under tubulin stimulation (ADP-Glo assay). The conditions noted are these: KIF18A 30 nM, ATP 150 μM, pig microtubules. The format is biochemical. Here is the method: This experiment assesses the inhibitory effect of the compounds of the present disclosure on the KIF18A target according to the IC50 values by measuring the KIF18A ATPase activity under tubulin stimulation with the presence of the compounds.
• 1. Preparation of 30 mL of reaction buffer: • (1) 450 μL 1M Tris-HCl (pH=7.5)+300 μL 1M MgCl2+30 μL 10% Pluronic F-68 (ThermoFisher, 24040032-100 ml); • (2) adjusting pH to 7.5, and adding water to adjust the volume to 30 mL. • 2. Preparation of a 5 mg/mL pig microtubule (Microtubules; MT) (Cytoskeleton Inc, MT002) stock solution: • (1) 10 mL PM buffer=150 μL 1 M PIPES (pH 7.0)+20 μL 0.5 mM MgCl2+100 μL 2 mM Taxol (Cytoskeleton Inc, TXD01)+9730 μL water. • (2) MT ([…]): Adding 100 μL PM buffer to prepare a 5 mg/mL stock solution. Keeping the MT (Cytoskeleton Inc, MT002) at room temperature for 10-15 minutes, gently mixing and storing same at −80° C. • 3. Preparation of 2 mL of kinase buffer: 2 mL reaction buffer+1 μL 2 mM Taxol (Cytoskeleton Inc, TXD01)+12 μL 5 mg/mL MT (Cytoskeleton Inc, MT002). • 4. Preparation of 2×KIF18A (30 nM) (ChemPartner, CPB-P22-31645) working solution: 2.4 μL 10 μM KIF18A (ChemPartner, CPB-P22-31645)+800 μL 1× kinase buffer. • 5. Preparation of 2×ATP (150 μM) (Promega, G9101) working solution: 12 μL 10 mM ATP+800 μL 1× kinase buffer. • 6. 25 nL of compound was transferred to a 384-well plate using Echo650. • 7. 2.5 μL of 2×KIF18A from Step 4 (final concentration of 30 nM) was added to the 384-well plate and the plate was incubated at 25° C. for 15 minutes. • 8. 2.5 μL of 2×ATP from Step 5 (final concentration of 150 μM) was added to the 384-well plate and the plate was incubated at 25° C. for 15 minutes. • 9. 5 μL ADP-Glo™ Reagent (Promega, G9101) was added to the 384-well plate and the plate was incubated at 25° C. for 40 minutes. • 10. 10 μL of kinase detection reagent (Promega, G9101) was added to the 384-well plate and the plate was incubated at 25° C. for 40 minutes. • 11. Luminescence values were measured using the EnVision Xcite Multilabel Reader (PerkinElmer, 2105-0020).

KIF18A, sequence (Q8NI77 whole entry): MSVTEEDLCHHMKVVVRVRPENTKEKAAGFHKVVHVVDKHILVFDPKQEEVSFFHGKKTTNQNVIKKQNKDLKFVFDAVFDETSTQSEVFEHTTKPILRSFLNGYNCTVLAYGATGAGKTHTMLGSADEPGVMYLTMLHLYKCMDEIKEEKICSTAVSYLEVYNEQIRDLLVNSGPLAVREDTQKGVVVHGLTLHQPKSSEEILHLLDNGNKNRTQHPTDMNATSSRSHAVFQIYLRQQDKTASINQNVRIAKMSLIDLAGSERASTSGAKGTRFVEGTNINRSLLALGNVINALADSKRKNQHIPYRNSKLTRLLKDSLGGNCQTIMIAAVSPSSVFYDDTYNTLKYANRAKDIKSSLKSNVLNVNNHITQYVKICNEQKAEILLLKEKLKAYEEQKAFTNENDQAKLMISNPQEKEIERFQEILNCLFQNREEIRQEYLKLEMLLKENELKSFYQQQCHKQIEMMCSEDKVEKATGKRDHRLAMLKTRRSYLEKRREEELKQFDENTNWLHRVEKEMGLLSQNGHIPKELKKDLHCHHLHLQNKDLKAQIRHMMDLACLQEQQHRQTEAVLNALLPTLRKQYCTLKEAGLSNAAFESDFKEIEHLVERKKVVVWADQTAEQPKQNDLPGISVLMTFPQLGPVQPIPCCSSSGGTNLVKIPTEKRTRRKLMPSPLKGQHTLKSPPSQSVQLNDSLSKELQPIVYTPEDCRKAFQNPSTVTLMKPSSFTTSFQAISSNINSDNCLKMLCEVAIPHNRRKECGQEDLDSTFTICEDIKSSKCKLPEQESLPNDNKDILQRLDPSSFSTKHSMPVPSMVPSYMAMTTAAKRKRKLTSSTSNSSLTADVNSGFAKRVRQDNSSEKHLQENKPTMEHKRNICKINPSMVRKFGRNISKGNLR
KIF18A, sequence (P02550 whole entry partner): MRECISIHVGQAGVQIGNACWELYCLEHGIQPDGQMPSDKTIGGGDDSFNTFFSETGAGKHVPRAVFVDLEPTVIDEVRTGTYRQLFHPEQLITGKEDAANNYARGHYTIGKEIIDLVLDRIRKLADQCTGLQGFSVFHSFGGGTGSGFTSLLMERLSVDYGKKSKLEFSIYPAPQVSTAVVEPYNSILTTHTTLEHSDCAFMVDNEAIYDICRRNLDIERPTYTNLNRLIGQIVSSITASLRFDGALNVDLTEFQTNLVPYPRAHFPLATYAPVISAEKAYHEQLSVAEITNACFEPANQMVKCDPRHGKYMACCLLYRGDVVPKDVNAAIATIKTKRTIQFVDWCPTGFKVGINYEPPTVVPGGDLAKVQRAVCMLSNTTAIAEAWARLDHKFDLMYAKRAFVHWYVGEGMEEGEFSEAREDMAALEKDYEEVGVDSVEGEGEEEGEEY
KIF18A, sequence (P02554 whole entry partner): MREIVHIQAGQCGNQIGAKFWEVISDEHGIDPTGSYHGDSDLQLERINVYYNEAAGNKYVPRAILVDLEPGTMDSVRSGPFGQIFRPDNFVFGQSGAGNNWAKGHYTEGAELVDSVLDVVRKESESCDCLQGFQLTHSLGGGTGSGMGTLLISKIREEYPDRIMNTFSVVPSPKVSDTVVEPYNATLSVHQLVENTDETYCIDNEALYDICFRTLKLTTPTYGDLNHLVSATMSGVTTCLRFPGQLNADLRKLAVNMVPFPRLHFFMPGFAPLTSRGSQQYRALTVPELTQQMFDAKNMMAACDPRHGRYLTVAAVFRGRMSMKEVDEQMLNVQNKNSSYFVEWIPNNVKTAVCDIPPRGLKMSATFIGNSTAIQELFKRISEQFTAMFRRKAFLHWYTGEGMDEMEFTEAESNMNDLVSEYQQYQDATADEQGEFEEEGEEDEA

In turn, `COC1c2cc3c(NC(=O)c4ccc(NS(=O)(=O)CCO)cc4N4CCC5(CC4)CC5)cccc3n2CCC1(F)F` (single isomer, unassigned) [Compound 385-P1, N-(8,8-difluoro-9-(methoxy-d3)-6,7,8,9-tetrahydropyridino[1,2-a]indol-1-yl)-4-((2-hydroxyethyl)sulfonamido)-2-(6-azaspiro[2.5]oct-6-yl)benzamide] had a pIC50 of 6.30 to 7.30. The result for `COC1c2cc3c(NC(=O)c4ccc(NS(=O)(=O)CCO)cc4N4CCC5(CC4)CC5)cccc3n2CCC1(F)F` (single isomer, unassigned) [Compound 385-P2, N-(8,8-difluoro-9-(methoxy-d3)-6,7,8,9-tetrahydropyridino[1,2-a]indol-1-yl)-4-((2-hydroxyethyl)sulfonamido)-2-(6-azaspiro[2.5]oct-6-yl)benzamide] reads 6.30 to 7.30; that for `CN1CCc2c(NC(=O)c3ccc(NS(=O)(=O)CCO)cc3N3CCC4(CC3)CC4)cccc21` [Example 6, 4-(N-(2-hydroxyethyl)sulfonamido)-N-(1-methylindolin-4-yl)-2-(6-azaspiro[2.5]octan-6-yl)benzamide], 6.30 to 7.30; that for `CN1CCCc2c(NC(=O)c3ccc(NS(=O)(=O)CCO)cc3N3CCC4(CC3)CC4)ccnc21` [Example 7, 4-(2-hydroxyethyl)sulfonamido-N-(8-methyl-5,6,7,8-tetrahydro-1,8-naphthyridin-4-yl)-2-(6-azaspiro[2.5]octan-6-yl)benzamide], 6.30 to 7.30. In turn, `O=C(Nc1ccnc2c1CCCN2CC1CC1)c1ccc(NS(=O)(=O)CCO)cc1N1CCC2(CC1)CC2` [Example 8, 4-(2-hydroxyethyl)sulfonamido-N-(8-cyclopropylmethyl-5,6,7,8-tetrahydro-1,8-naphthyridin-4-yl)-2-(6-azaspiro[2.5]octan-6-yl)benzamide] had a pIC50 of 6.30 to 7.30. Under `Cn1ccc2c(NC(=O)c3ccc(NS(=O)(=O)CCO)cc3N3CCC4(CC3)CC4)cccc21` [Example 10, 4-((2-hydroxyethyl)sulfonamido)-N-(1-methyl-1H-indol-4-yl)-2-(6-azaspiro[2.5]octan-6-yl)benzamide] stands 6.30 to 7.30; under `CN1CCCCc2c(NC(=O)c3ccc(NS(=O)(=O)CCO)cc3N3CCC4(CC3)CC4)cccc21` [Example 11, 4-((2-hydroxyethyl)sulfonamido)-N-(1-methyl-2,3,4,5-tetrahydro-1H-benzo[b]azepin-6-yl)-2-(6-azaspiro[2.5]octan-6-yl)benzamide], 5.30 to 6.30; under `O=C(Nc1cccc2c1CCCCN2CC1CC1)c1ccc(NS(=O)(=O)CCO)cc1N1CCC2(CC1)CC2` [Example 12], 5.30 to 6.30. As to `O=C(Nc1cccc2c1CCN2CC1CCC1)c1ccc(NS(=O)(=O)CCO)cc1N1CCC2(CC1)CC2` [Example 14, N-(1-(cyclobutylmethyl)dihydroindol-4-yl)-4-((2-hydroxyethyl)sulfonamido)-2-(6-azaspiro[2.5]octan-6-yl)benzamide], the pIC50 is 6.30 to 7.30. Under `O=C(Nc1cccc2c1CCN2CC1CCCC1)c1ccc(NS(=O)(=O)CCO)cc1N1CCC2(CC1)CC2` [Example 15, N-(1-(cyclopentylmethyl)dihydroindol-4-yl)-4-((2-hydroxyethyl)sulfonamido)-2-(6-azaspiro[2.5]oct-6-yl)benzamide] stands 5.30 to 6.30. `O=C(Nc1cccc2c1C1(CC1)C(=O)N2CC1CC1)c1ccc(NS(=O)(=O)CCO)cc1N1CCC2(CC1)CC2` [Example 17, N-(1′-(cyclopropylmethyl)-2′-oxospiro[cyclopropane-1,3′-indolin]-4′-yl)-4-((2-hydroxyethyl)sulfonamido)-2-(6-azaspiro[2.5]octan-6-yl)benzamide]: the pIC50 was below 5.30.

`O=C(Nc1cnc2n1CCCC2)c1ccc(NS(=O)(=O)CCO)cc1N1CCC2(CC1)CC2` [Example 19, 4-((2-hydroxyethyl)sulfonamido)-2-(6-azaspiro[2.5]octan-6-yl)-N-(5,6,7,8-tetrahydroimidazo[1,2-a]pyridin-3-yl)benzamide] gave a pIC50 below 5.30.

On to `O=C(Nc1ccnc(N2CCC(F)(F)CC2)c1)c1ccc(NS(=O)(=O)CCO)cc1OC1CCCCC1` [Example 22], for which the pIC50 is 6.30 to 7.30. Under `O=C(Nc1ccnc(N2CCC(F)(F)CC2)c1)c1ccc(NS(=O)(=O)CCO)cc1OC1CCOCC1` [Example 23, N-(2-(4,4-difluoropiperidin-1-yl)pyridin-4-yl)-4-((2-hydroxyethyl)sulfonamide)-2-((tetrahydro-2H-pyran-4-yl)oxy)benzamide] stands below 5.30; under `O=C(Nc1ccnc(N2CCC(F)(F)CC2)c1)c1ccc(NS(=O)(=O)CCO)cc1OC1CCC(F)(F)CC1` [Example 24, 2-((4,4-difluorocyclohexyl)oxy)-N-(2-(4,4-difluoropiperidin-1-yl)pyridin-4-yl)-4-((2-hydroxyethyl)sulfonamide)benzamide], 5.30 to 6.30. Under `O=C(Nc1cccc2c1CCN2CC1CC1)c1ccc(NS(=O)(=O)CCO)c2c1OCCO2` [Example 25, N-(1-(cyclopropylmethyl)indolin-4-yl)-8-((2-hydroxyethyl)sulfonamido)-2,3-dihydrobenzo[b][1,4]dioxine-5-carboxamide] stands below 5.30; under `Cc1cc(NC(=O)c2ccc(NS(=O)(=O)CCO)cc2OC2CC3(CCC3)C2)nc(N2CCC(F)(F)CC2)n1` [Example 26, N-(2-(4,4-difluoropiperidin-1-yl)-6-methylpyrimidin-4-yl)-4-((2-hydroxyethyl)sulfonamido)-2-(spiro[3.3]heptan-2-yloxy)benzamide], 6.30 to 7.30; under `O=C(Nc1cccc2c1CCN2CC1CC1)c1ccc(NS(=O)(=O)CCO)cc1OC1CCCCC1` [Example 27, 2-(cyclohexyloxy)-N-(1-(cyclopropylmethyl)indolin-4-yl)-4-((2-hydroxyethyl)sulfonamide)benzamide], 5.30 to 6.30. The result for `O=C(Nc1ccnc(N2CCC(F)(F)CC2)c1)c1ccc(NS(=O)(=O)CCO)cc1OC1CCCC1` [Example 28, 2-(cyclopentoxy)-N-(2-(4,4-difluoropiperidin-1-yl)pyridin-4-yl)-4-((2-hydroxyethyl)sulfonamide)benzamide] reads 5.30 to 6.30; that for `O=C(Nc1cccc2c1CCN2CC1CC1)c1ccc(NS(=O)(=O)CCO)cc1OC1CCC(F)(F)CC1` [Example 29, N-(1-(cyclopropylmethyl)indolin-4-yl)-2-((4,4-difluorocyclohexyl)oxy)-4-((2-hydroxyethyl)sulfonamide)benzamide], below 5.30. Regarding `O=C(Nc1cccc2c1CCN2CC1CC1)c1ccc(NS(=O)(=O)CCO)cc1OC1CCCC1` [Example 30, 2-(cyclopentoxy)-N-(1-(cyclopropylmethyl)indolin-4-yl)-4-((2-hydroxyethyl)sulfonamide)benzamide], the pIC50 was 5.30 to 6.30. Consider `O=C(Nc1ccnc2c1CCN2CC1CC1)c1ccc(NS(=O)(=O)CCO)cc1N1CCC2(CC1)CC2` [Example 32, N-(1-(cyclopropylmethyl)-2,3-dihydro-1H-pyrrolo[2,3-b]pyridin-4-yl)-4-((2-hydroxyethyl)sulfanilamido)-2-(6-azaspiro[2.5]octan-6-yl)4-benzamide], for which the pIC50 is 6.30 to 7.30.

Take `O=C(Nc1ccnc2c1ccn2CC1CC1)c1ccc(NS(=O)(=O)CCO)cc1N1CCC2(CC1)CC2` [Example 33, N-(1-(cyclopropylmethyl)-1H-pyrrolo[2,3-b]pyridin-4-yl)-4-((2-hydroxyethyl)sulfanilamido)-2-(6-azaspiro[2.5]octan-6-yl)4-benzamide]: the negative-log IC50 (pIC50) is at least 7.30.
